Experimental data reported in US20220273793A1, “HORSE IL-31 INDUCED PRURITUS MODEL” (priority 2021, published 2022).
Several values for one entry are separate records, joined by “and”; a condition that tells them apart may be missing. Equal values may be shown once.

System: equine IL-31
Assay: Equine challenge study using the IL-31 itch model after IL-31 mimotope vaccines
Type: in vivo, Horse
Settings: for 1st Challenge Score (pruritus score): CRM197 conjugate 25 μg/dose, SP oil + CpG, IL-31 challenge Day 14 post-boost; for 1st Challenge Score (pruritus score) / Percent Change, 1st Challenge vs Historical Score / Percent Change, 2nd Challenge vs Historical Score / 2nd Challenge Score (pruritus score): individual horses; for 1st Challenge Average % Change in pruritus scores / Percent Change, 1st Challenge vs Historical Score: Day 14 post-boost; for 1st Challenge Average % Change in pruritus scores / 2nd Challenge Average % Change in pruritus scores: group mean; for 2nd Challenge Average % Change in pruritus scores / Percent Change, 2nd Challenge vs Historical Score: Day 105 post-boost; for 2nd Challenge Score (pruritus score): IL-31 challenge Day 105 post-boost; for reduction in itch (relative to historic scores): vaccinated horses, after 105 days of the final booster dose
From the text: Based on the high antibody titers elicited by horses vaccinated with CRM197 conjugated IL 31 mimotopes (FIG. 4), horses from the serology studies were utilized in a challenge study using the IL-31 itch model developed by the present inventors. Selected horses were vaccinated with an additional boost of the corresponding mimotope vaccines, after conclusion of the serology study, and were challenged with IL-31 at Day 14 after the final boost and at Day 105 after the final boost.
Various candidate IL-31 mimotope constructs were evaluated, including ZTS-7240 (comprising SEQ ID NO:4) mimotope (constrained) corresponding to the 1505 region and ZTS-241 (comprising SEQ ID NO:6) mimotope (linear) corresponding to the A helix of the IL-31 homology model (FIG. 2). Study design is outlined in Table 6 below:
There were no treatment groups T02 and T04 assigned in this study in order to continue to keep the group designations of respective horses from the first serology study. One horse each from treatment groups T02 and T04 from the first serology were used in treatment group T08 as negative controls (No booster dose given; challenged on Day 14 and Day 105 along with other treatment groups).

Sequence of equine IL-31 (as listed by the source): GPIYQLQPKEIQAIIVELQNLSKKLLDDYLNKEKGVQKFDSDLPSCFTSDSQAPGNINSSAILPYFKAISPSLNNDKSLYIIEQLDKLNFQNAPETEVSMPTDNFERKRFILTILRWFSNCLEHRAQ

Row | Substance | 1st Challenge Score (pruritus score) (T03, T05, T06, T07: IM) | 1st Challenge Average % Change in pruritus scores (T03, T05, T06, T07: IM) | Percent Change, 1st Challenge vs Historical Score (T03, T05, T06, T07: IM) | 2nd Challenge Average % Change in pruritus scores (T03, T05, T06, T07: IM) | Percent Change, 2nd Challenge vs Historical Score (T03, T05, T06, T07: IM) | 2nd Challenge Score (pruritus score) (T03, T05, T06, T07: IM) | reduction in itch (relative to historic scores) | 1st Challenge Score (pruritus score) (T01, SC) | 1st Challenge Average % Change in pruritus scores (T01, SC) | Percent Change, 1st Challenge vs Historical Score (T01, SC) | 2nd Challenge Average % Change in pruritus scores (T01, SC) | Percent Change, 2nd Challenge vs Historical Score (T01, SC) | 2nd Challenge Score (pruritus score) (T01, SC)
1 | Ac-CGSGGPIYQLQPKEIQAIIVELQNLSKK-NH2 (not fully specified; printed as Ac-CGSGGPIYQLQPKEIQAIIVELQNLSKK-NH2; numbers in words are those of the source; also: CRM197 conjugate) [ZTS-7241, tested as CRM197 conjugate with SP oil + CpG] | 12 and 5 and 38 | −82.18% | −86.44% and −94.87% and −65.23% | −68.70% | −87.57% and −48.72% and −69.81% | 11 and 50 and 33 | 68% | – | – | – | – | – | –
2 | Ac-CGSGKEKGVQKFDS-NH2 (not fully specified; printed as Ac-CGSGKEKGVQKFDS-NH2; numbers in words are those of the source; also: CRM197 conjugate) [ZTS-7242, tested as CRM197 conjugate with SP oil + CpG] | 53 and 45 and 54 | −20.58% | −23.96% and −17.43% and −20.35% | 46.28% | 22.94% and 69.62% | 67 and 115 | – | – | – | – | – | – | –
3 | Ac-CGSGNSSAILPYFKAISPSLNNDKSLYIIEQLDKLNF-NH2 (not fully specified; printed as Ac-CGSGNSSAILPYFKAISPSLNNDKSLYIIEQLDKLNF-NH2; numbers in words are those of the source; also: CRM197 conjugate) [ZTS-765, tested as CRM197 conjugate with SP oil + CpG] | 4 and 33 and 21 | −77.62% | −94.54% and −66.33% and −72.00% | −45.03% | −23.60% and −40.82% and −70.67% | 56 and 58 and 22 | – | 17 and 11 | −82.12% | −74.81% and −89.42% | −25.88% | −39.26% and −12.50% | 41 and 91
4 | Ac-C[Ahx]C(mT2b)TEVSMPTDNFERKRFILTC(mT2b)-NH2 [ZTS-7240] | 6 and 21 and 18 | −84.61% | −94.13% and −76.74% and −82.94% | −84.27% | −92.18% and −83.39% and −77.25% | 8 and 15 and 24 | 80% | – | – | – | – | – | –
